Usually IC50 stands for the concentration that gives 50% inhibition.

From patent US9895329B1, “Formyl peptide receptor 1 antagonists and uses thereof” (Chang Gung University, priority 2016, dated 2018) come the findings set out here.

Data set [1] relates to human neutrophils. In words: O2•− (superoxide) production in fMLF-activated human neutrophils. The class given is cell-based. Particulars: Neutrophil; fMLF (0.1 μM)/CB-activated human neutrophils; read-out: IC50, suppression of superoxide production. The procedure:
(§1) Human neutrophils were obtained in lipopolysaccharide-free conditions by means of dextran sedimentation and Ficoll centrifugation.
O2^•− production was determined based on the SOD-inhibitable reduction of ferricytochrome c. Briefly, neutrophils (6×10^5/mL) were treated with LS-PH at 37° C. at various concentrations (0.03 to 3 μM) for 5 min after being supplementing with 0.5 mg/mL ferricytochrome c and 1 mM Ca^2+. Cells were activated with formyl-L-methionyl-L-leucyl-L-phenylalanine (fMLF, 0.1 μM) for 10 min in the pre-process of cytochalasin B (CB, 1 μg/mL) for 3 min. Changes in absorbance with the reduction of ferricytochrome c at 550 nm were continuously monitored in a double-beam, six-cell positioner spectrophotometer with constant stirring (Hitachi U-3010, Tokyo, Japan). Calculations were based on the differences in the reactions with and without SOD (100 U ml^−1) divided by the extinction coefficient for the reduction of ferricytochrome c (ε=21.1 mM^−1/10 mm).

Data set [2] has as its system human neutrophils. Briefly: Elastase release from fMLF-activated human neutrophils. As to conditions: Neutrophil; fMLF (0.1 μM)/CB-activated human neutrophils; read-out: IC50, suppression of elastase release. The class given is cell-based. How it is done: as §1
MeO-Suc-Ala-Ala-Pro-Val-p-nitroanilide was employed as the elastase substrate for the determination of elastase release. Briefly, after supplementation with Methoxysuccinyl-Ala-Ala-Pro-Val-p-nitroanilide (Ms-Ala-Ala-Pro-Val-pNA) (100 μM), neutrophils (6×10^5/mL) were equilibrated at 37° C. for 2 min and incubated with LS-PH at various concentrations for 5 min. Cells were activated with fMLF (0.1 μM) for 10 min in the pre-process of cytochalasin B (CB, 0.5 μg/mL) for 3 min, and changes in absorbance at 405 nm were continuously monitored to evaluate elastase release. Results are expressed as the percentage of elastase release in the drug-free control group, DMSO.

The test system of data set [3] is human neutrophils. Briefly: Intracellular ROS formation in fMLF-activated human neutrophils. Format: cell-based. The procedure: as §1
After supplementation with dihydrorhodamine 123 (2 μM), neutrophils (1×10^6/mL) were equilibrated at 37° C. for 12 min and incubated with LS-PH at various concentrations for 5 min. Cells were activated with fMLF (0.1 μM) for 5 min in the pre-process of cytochalasin B (CB, 0.5 μg/mL) for 3 min. Intracellular ROS was determined by use of flow cytometer.

In data set [4] the test system is human neutrophils. Format: cell-based. Particulars: 0.03 to 3 μM. How it is done: Cytotoxicity of LS-PH towards neutrophils was evaluated by measuring the level of lactate dehydrogenase (LDH) using a commercial kit (Promega). LDH is a cytosolic enzyme that is released only when cell membrane is disrupted (i.e., cell death), thus may be used as an indicator of cell viability. The kit measures a color change at (λmax=450 nm) when LDH reduces NAD to NADH. Cytotoxicity was expressed as the percent LDH activity obtained in cell-free medium compared to the total LDH activity. Total LDH activity was determined by lysing cells with 0.1% Triton X-100 for 30 min at 37° C.

Another data set concerns the target T1, FPR1 (Homo sapiens, UniProt P21462).
T1 construct: endogenous in cells; host or cells: neutrophils
T1 sequence (P21462 1-350): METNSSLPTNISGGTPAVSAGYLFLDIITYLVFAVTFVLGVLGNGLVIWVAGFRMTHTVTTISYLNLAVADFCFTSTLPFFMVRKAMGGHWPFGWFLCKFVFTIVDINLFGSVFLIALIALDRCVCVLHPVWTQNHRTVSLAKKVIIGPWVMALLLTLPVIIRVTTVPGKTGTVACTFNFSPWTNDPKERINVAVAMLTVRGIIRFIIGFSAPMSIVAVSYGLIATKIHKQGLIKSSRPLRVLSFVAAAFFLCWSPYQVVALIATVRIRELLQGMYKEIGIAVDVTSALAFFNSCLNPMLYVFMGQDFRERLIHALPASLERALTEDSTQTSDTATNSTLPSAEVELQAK
In words: FPR1 binding assay (FNLFNYK, flow cytometry). Particulars: neutrophils, FNLFNYK 4 nM, 4° C.; read-out: IC50, suppression of binding of FPR1-specific ligand FNLFNYK. The procedure:
Neutrophils (2×10^6 cells/ml) were incubated with various concentrations of compound LS-PH (0.03 to 3 μM) or fMLF (10 μM) at 4° C. for 5 min, and labeled with FPR1-specific ligand […] (4 nM) for 30 min. Then, the binding was determined by use of flow cytometry.

As for `C=C(C)C1CCC2(C(=O)O)CC[C@]3(C)[C@H](CC[C@@H]4[C@@](C)(CCC(=O)O)[C@H](C(=C)C)CC[C@]43C)C12` (some centres unmarked) [LS-PH, (E) 3,4-Seco-4(23), 20(29)-lupadiene-3,28-dioic acid], the IC50 in the data set on human neutrophils [1] was approximately 260 nM; with human neutrophils [2] it was approximately 710 nM; on FPR1, approximately 1720 nM. Also, the “suppression of fMLF-induced intracellular ROS formation” value with human neutrophils [3] is “suppress fMLF-induced intracellular ROS formation”. For the same compound, in the data set with human neutrophils [4], the “cytotoxicity (LDH release)” value is on record as “did not exhibit detectable cytotoxicity”.
